pIC50: −log10 of the molar value. Read-outs that look alike come from different tables or passages of the source.
Legend:
Assay in all cases: CellTiter-Glo luminescent cell viability assay
Assay type in all cases: cell-based, human
HCT 116 cells = conditions: for pIC50: Homo sapiens, HCT-116, 72 h, 72 h, read-out: IC50 inhibition of cancer cell proliferation
Description: (§1) To evaluate the effects of one compound on 7 cell lines with a CellTiter-Glo Luminescent Cell Viability Assay. Cells were treated with compounds for 72 hours at 37° C./5% CO2 incubator. Compound stock concentration was 20 mM, concentrations to be assayed 100\50\15\10.5\0.1\0.05\0.01\0.005 pM. • i) Materials and Reagents
(§2) a) Cells in log-phase are collected and counted. Cell suspensions are added to each well of 384-w plate at a suitable density. The margin wells are filled with PBS.
(§3) b) Test compound at various concentrations are added in duplicates
(§4) c) The cells were incubated for 72 h in 370/5% CO 2 incubator.
(§5) d) After incubation, CellTiter-Glo® Reagent is added to each test well and shack for 2 minutes on an orbital shaker.
(§6) e) The plates are shortly centrifuged at 90×g for 30 s and incubated at room temperature for additional 10 minutes to stabilize the luminescent signal.
(§7) f) Luminescence signals are detected on PHERAstar Plus.
(§8) g) Data is collected in Microsoft excel forms and analyzed with GraphPad Prism v.6 software. • iii) Data analysis
(§9) The potential effect of the testing compounds an cell proliferation was calculated by the formula below: Inhibition %=[…]
(§10) Since hsMTHFD2 is expressed in human mitochondria and overexpressed in many tumor cells we next aimed to evaluate its potential as an anticancer compound. To this end IC50 values for carolacton were determined for six different cancer cell lines as well as HUVEC cells as primary non-tumor cells. The CellTiter-Glo luminescent cell viability assay (Promega) was used on triplicate cultures grown for three days. Each cell line was tested in three independent experiments (performed at different times and by different experimentators): First, using natural carolacton purified from culture supernatants of Sorangium cellulosum and solved in methanol; second, using carolacton synthesized de novo according to Schmidt et al. 2012 and solved in DMSO; and third, using synthetic carolacton synthesized de novo according to Schmidt et al. 2012 and solved in methanol.

HUVEC cells = conditions: for pIC50: Homo sapiens, HUVEC
Description: as §1, §2, §3, §4, §5, §6, §7, §8, §9, §10

NCI-N87 cells = conditions: for pIC50: Homo sapiens, NCI-N87, 72 h, 72 h, read-out: IC50 inhibition of cancer cell proliferation
Description: as §1, §2, §3, §4, §5, §6, §7, §8, §9, §10

NK-92 cells = conditions: for pIC50: Homo sapiens
Description: as §1, §2, §3, §4, §5, §6, §7, §8, §9, §10

SW626 cells = conditions: for pIC50: Homo sapiens, SW626, 72 h, 72 h, read-out: IC50 inhibition of cancer cell proliferation
Description: as §1, §2, §3, §4, §5, §6, §7, §8, §9, §10

THP-1 cells = conditions: for pIC50: Homo sapiens, THP-1, 72 h, 72 h
Description: as §1, §2, §3, §4, §5, §6, §7, §8, §9, §10

U-937 cells = conditions: for pIC50: Homo sapiens
Description: as §1, §2, §3, §4, §5, §6, §7, §8, §9, §10

[1] = HUVEC (primary), natural C, methanol
[2] = HUVEC (primary), synthetic C, DMSO
[3] = HUVEC (primary), synthetic C, methanol

CO[C@H](CC(=O)O)[C@@H](C)C(=O)[C@H](C)/C=C(\C)[C@H]1OC(=O)[C@H](O)[C@H](O)/C=C/[C@H](C)CCC[C@@H]1C [Carolacton, carolacton]
pIC50 (HCT 116 cells; natural C, methanol): 6.28 | pIC50 (HCT 116 cells; synthetic C, DMSO): 6.54 | pIC50 (HCT 116 cells; synthetic C, methanol): 6.28 | Bottom (HCT 116 cells; natural C, methanol): −1.927 | Top (HCT 116 cells; natural C, methanol): 43.89 | Bottom (HCT 116 cells; synthetic C, DMSO): −1.609 | Top (HCT 116 cells; synthetic C, DMSO): 63.98 | Bottom (HCT 116 cells; synthetic C, methanol): −2.614 | Top (HCT 116 cells; synthetic C, methanol): 63.68 | Bottom (HUVEC cells; [1]): −4.548 | Top (HUVEC cells; [1]): =100.0 | Bottom (HUVEC cells; [2]): −7.188 | Top (HUVEC cells; [2]): =100.0 | Bottom (HUVEC cells; [3]): −3.312 | Top (HUVEC cells; [3]): =100.0 | pIC50 (HUVEC cells; 72 h, HUVEC (primary), natural C, methanol, 72 h, read-out: IC50 inhibition of cell proliferation): 4.32 | pIC50 (HUVEC cells; 72 h, HUVEC (primary), synthetic C, DMSO, 72 h, read-out: IC50 inhibition of cell proliferation): 3.99 | pIC50 (HUVEC cells; HUVEC cells, read-out: IC50): 4.33 | pIC50 (NCI-N87 cells; natural C, methanol): 6.65 | pIC50 (NCI-N87 cells; synthetic C, DMSO): < 4.00 | pIC50 (NCI-N87 cells; synthetic C, methanol): 6.45 | Bottom (NCI-N87 cells; natural C, methanol): 11.93 | Top (NCI-N87 cells; natural C, methanol): 41.34 | Bottom (NCI-N87 cells; synthetic C, methanol): 6.683 | Top (NCI-N87 cells; synthetic C, methanol): 23.87 | pIC50 (NK-92 cells; NK92, 72 h, NK-92, natural C, methanol, 72 h, read-out: IC50 inhibition of cancer cell proliferation): 7.40 | pIC50 (NK-92 cells; NK92, 72 h, NK-92, synthetic C, DMSO, 72 h, read-out: IC50 inhibition of cancer cell proliferation): < 4.00 | pIC50 (NK-92 cells; NK92, 72 h, read-out: IC50 inhibition of cancer cell proliferation, NK-92, synthetic C, methanal, 72 h): 7.44 | pIC50 (NK-92 cells; NK92, malignant NK-92 cells, read-out: IC50 inhibition of proliferation): 7.41 to 7.43 | Bottom (NK-92 cells; NK-92, natural C, methanol): −9.96 | Top (NK-92 cells; NK-92, natural C, methanol): 91.08 | Bottom (NK-92 cells; NK-92, synthetic C, methanal): 1.208 | Top (NK-92 cells; NK-92, synthetic C, methanal): 91.05 | pIC50 (SW626 cells; natural C, methanol): 6.44 | pIC50 (SW626 cells; synthetic C, DMSO): 6.04 | pIC50 (SW626 cells; synthetic C, methanol): 6.00 | Bottom (SW626 cells; natural C, methanol): 1.167 | Top (SW626 cells; natural C, methanol): 42.81 | Bottom (SW626 cells; synthetic C, DMSO): 5.588 | Top (SW626 cells; synthetic C, DMSO): 43.17 | Bottom (SW626 cells; synthetic C, methanol): 3.62 | Top (SW626 cells; synthetic C, methanol): 47.2 | pIC50 (THP-1 cells; THP 1, synthetic C, methanol, read-out: IC50 inhibition of cancer cell proliferation): 4.30 | pIC50 (THP-1 cells; THP-1, natural C, methanol, read-out: IC50 inhibition of cancer cell proliferation): 5.05 | pIC50 (THP-1 cells; read-out: IC50 inhibition of cancer cell proliferation, THP-1, synthetic C, DMSO): 3.99 | Bottom (THP-1 cells; THP 1, synthetic C, methanol): 14.83 | Top (THP-1 cells; THP 1, synthetic C, methanol): 67.53 | Bottom (THP-1 cells; THP-1, natural C, methanol): 2.537 | Top (THP-1 cells; THP-1, natural C, methanol): 75.92 | Bottom (THP-1 cells; THP-1, synthetic C, DMSO): −4.341 | Top (THP-1 cells; THP-1, synthetic C, DMSO): =100.0 | pIC50 (U-937 cells; U-937, 72 h, U-937, natural C, methanol, 72 h, read-out: IC50 inhibition of cancer cell proliferation): 7.97 | pIC50 (U-937 cells; U-937, 72 h, U-937, synthetic C, DMSO, 72 h, read-out: IC50 inhibition of cancer cell proliferation): 7.35 | pIC50 (U-937 cells; U-937, 72 h, U-937, synthetic C, methanol, 72 h, read-out: IC50 inhibition of cancer cell proliferation): 8.16 | pIC50 (U-937 cells; U-937, Lymphoma cells (U-937), read-out: IC50 inhibition of proliferation): 7.35 to 8.17 | Bottom (U-937 cells; U-937, natural C, methanol): =0.0 | Top (U-937 cells; U-937, natural C, methanol): 67.6 | Bottom (U-937 cells; U-937, synthetic C, DMSO): 1.808 | Top (U-937 cells; U-937, synthetic C, DMSO): 61.59 | Bottom (U-937 cells; U-937, synthetic C, methanol): 0 | Top (U-937 cells; U-937, synthetic C, methanol): 60.9

Reference: patent US11357752B2, “Carolacton and derivatives thereof for use in the treatment of cell proliferation disorders” (Helmholtz-Zentrum für Infektionsforschung GmbH, priority 2017, dated 2022)
